Laboratory results published in PubChem BioAssay (NCI).
Where “and” joins values, the source holds several entries; their conditions need not be identical. Equal values may be shown once.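 Dose response: 5 concentrations. Exposure: 48 h. Format: 96-well plates. Endpoint: linear interpolation; highest concentration if not reached. Abbreviation: GI50, concentration required for 50% inhibition of growth. TGI is the concentration that stops growth completely.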

Experiments:
Assay in all cases: NCI tumour cell line growth inhibition, 48 h
786-0 renal = test system: 786-0 renal
SK-MEL-2 melanoma = test system: SK-MEL-2 melanoma
NCI-H460 lung = test system: NCI-H460 lung
OVCAR-8 ovarian = test system: OVCAR-8 ovarian
CCRF-CEM leukemia = test system: CCRF-CEM leukemia
RXF 393 renal = test system: RXF 393 renal
SR leukemia = test system: SR leukemia
SF-268 CNS = test system: SF-268 CNS
NCI-H23 lung = test system: NCI-H23 lung
SNB-19 CNS = test system: SNB-19 CNS

Row | SMILES | GI50 (786-0 renal) | TGI (786-0 renal) | GI50 (SK-MEL-2 melanoma) | TGI (SK-MEL-2 melanoma) | GI50 (NCI-H460 lung) | TGI (NCI-H460 lung) | GI50 (OVCAR-8 ovarian) | TGI (OVCAR-8 ovarian) | GI50 (CCRF-CEM leukemia) | TGI (CCRF-CEM leukemia) | GI50 (RXF 393 renal) | TGI (RXF 393 renal) | GI50 (SR leukemia) [µM] | TGI (SR leukemia) [µM] | GI50 (SF-268 CNS) | TGI (SF-268 CNS) | GI50 (NCI-H23 lung) | TGI (NCI-H23 lung) | GI50 (SNB-19 CNS) | TGI (SNB-19 CNS)
1 | CNc1nc(N(C)C)nc(N(C)C)n1 | > 100 µM and 2790 µM | > 100 µM and 4840 µM | > 100 µM and 2150 µM | > 100 µM and 4820 µM | > 100 µM and 894 µM | > 100 µM and 3000 µM | > 100 µM and 1780 µM | > 100 µM and 2950 µM | > 100 µM and 4060 µM | > 100 µM and 6600 µM | > 100 µM and 975 µM | > 100 µM and 3070 µM | > 100 | > 100 | > 100 µM and 2680 µM | > 100 µM and 6220 µM | > 100 µM and 650 µM | > 100 µM and 1830 µM | > 100 µM and 1210 µM | > 100 µM and 3780 µM
2 | C[CH2][Sn]([CH2]C)([O]C(=O)c1cccc(F)c1)[O][Sn]([CH2]C)([CH2]C)[O]C(=O)c1cccc(F)c1 | 15.8 µM | 29.3 µM | 16.4 µM | 30.3 µM | 33.8 µM | > 100 µM | 17.5 µM | 32.3 µM | 4.28 µM | 34.7 µM | 14.5 µM | 27.7 µM | 28 | > 100 | 17.9 µM | 32.9 µM | 16.6 µM | 30.8 µM | 20.2 µM | 39.5 µM
3 | COc1ccc(/C=C/C(=O)c2cc3c(N)c(C(=O)Nc4ccccc4)sc3nc2C)cc1 | 0.276 µM | > 16 µM | 0.422 µM | > 50 µM | 0.195 µM |  | 0.277 µM | > 50 µM | 0.184 µM | > 28.7 µM | 0.114 µM | 2.31 µM | 0.207 | > 50 | 0.517 µM | > 50 µM | 0.227 µM |  | 0.269 µM | > 50 µM
4 | N=C(N)c1ccc(-c2ccc(-c3cccs3)s2)nc1 | 1.67 µM | 3.3 µM | 2.19 µM | 4.2 µM | 0.0334 µM | 0.449 µM | 1.59 µM | 4.06 µM | 1.78 µM | 4.19 µM | 1.56 µM | 3.54 µM | 1.27 | 5.47 | 2.74 µM | 10.7 µM | 3.67 µM | 18.9 µM | 3.48 µM | 20.8 µM
5 | OC(CNC1CCCC1)Cn1c2ccccc2c2ccccc21 (stereo not drawn) | 36.1 µM | > 100 µM | 25.1 µM | 68.6 µM | > 100 µM | > 100 µM | 27.6 µM | > 100 µM | > 100 µM | > 100 µM | 16.3 µM | 52.5 µM | > 100 | > 100 | 27 µM | 80.4 µM | 28.4 µM | 83.7 µM | 29.4 µM | > 100 µM
6 | CS/C(c1ccccc1)=[N+](/C)[O-] |  | > 100 µM |  | > 100 µM |  | 99.4 µM |  | > 100 µM |  | > 81.8 µM |  | > 100 µM |  | 47.6 |  | > 100 µM |  | > 100 µM |  | > 100 µM
7 | COC(=O)[C@@]1(O)C[C@H]2O[C@]1(C)n1c3ccccc3c3c4c(c5c6ccccc6n2c5c31)C(=O)NC4 | 0.312 µM | 1.67 µM | 0.0476 µM | 1.61 µM | 0.121 µM | 1.38 µM | 0.589 µM | 4.08 µM | 0.321 µM | 1.64 µM | 0.159 µM | 1.49 µM | 0.0686 | 1.75 | 0.63 µM | 3.17 µM | 0.212 µM | 2.36 µM | 1.1 µM | 4.05 µM
